Patent US20250195483A1, “SPIRO PIPERIDINE DERIVATIVES AS INHIBITORS OF APOL1 AND METHODS OF USING SAME” (Vertex Pharmaceuticals Incorporated, priority 2022, published 2025)
pIC50: −log10 of the molar value.

Biological target: T1, APOL1 (Homo sapiens, UniProt O14791)
T1 sequence (O14791 1-398): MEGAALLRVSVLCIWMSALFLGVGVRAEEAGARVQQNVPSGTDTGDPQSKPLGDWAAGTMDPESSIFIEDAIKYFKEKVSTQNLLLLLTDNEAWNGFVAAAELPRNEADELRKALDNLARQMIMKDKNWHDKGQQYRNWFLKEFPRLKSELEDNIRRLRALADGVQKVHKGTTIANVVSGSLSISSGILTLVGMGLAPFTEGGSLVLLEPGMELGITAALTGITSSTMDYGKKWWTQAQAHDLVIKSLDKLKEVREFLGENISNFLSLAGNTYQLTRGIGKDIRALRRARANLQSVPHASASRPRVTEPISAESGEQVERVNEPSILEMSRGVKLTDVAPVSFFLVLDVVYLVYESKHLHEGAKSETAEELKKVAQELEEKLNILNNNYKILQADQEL
Experiment: MultiTox-Fluor Multiplex Cytotoxicity Assay, tet-inducible APOL1 T-REx-HEK293 cells (G0, G1 or G2 clone not specified for Table 20)
Format: cell-based
Conditions: tet-induced, 24 hours with compound, ratio of dead to live cells, read-out: IP50 (i.e., IC50 for cell proliferation)
Method: Human embryonic kidney (HEK293) cell lines containing a tet-inducible expression system (T-REx™; Invitrogen, Carlsbad, CA) and Adeno-associated virus site 1 pAAVS1-Puro-APOL1 G0 or pAAVS1-Puro-APOL1 G1 or pAAVS1-Puro-APOL1 G2 Clones G0 DC2.13, G1 DC3.25, and G2 DC4.44 were grown in a T-225 flask at ˜90% confluency in cell growth media (DMEM, 10% Tet-free FBS, 2 mM L-glutamine, 100 Units/mL penicillin-streptomycin, 5 μg/mL blasticidin S HCl, 1 μg/mL puromycin dihydrochloride). Cells were washed with DPBS and then trypsinized to dissociate from the flask. Media was used to quench the trypsin, cells were then pelleted at 200 g and resuspended in fresh cell assay media (DMEM, 2% Tet-free FBS, 2 mM L-glutamine, 100 Units/mL penicillin-streptomycin). Cells were counted and diluted to 1.17×10^6 cells/mL. 20 μL of cells (23,400/well) were dispensed in every well of a 384-well Poly-D-Lysine coated plate using the Multidrop dispenser. The plates were then incubated at room temperature for one hour.
Tetracycline is needed to induce APOL1 expression. 1 mg/mL tet stock in water was diluted to 250 ng/mL (5×) in cell assay media. 60 μL of cell assay media (no tet control) was dispensed in columns 1 and 24, and 60 μL of 5× tet in 384-PP-round bottom plate was dispensed in columns 2 to 23 with the Multidrop dispenser.
Assay ready plates from the Global Compound Archive were ordered using template 384_APOL1Cell_DR10n2_50 uM_v3. Compounds were dispensed at 200 nL in DMSO. The final top concentration was 10 μM with a 10 point 3-fold dilution in duplicate in the MultiTox assay.
20 μL was transferred from the 5× tet plate to the ARP and mixed, then 5 μL of 5× tet and the compounds were transferred to the cell plate and mixed using the Bravo. The cell plate was placed in the humidified 37° C. 5% CO2 incubator for 24 hours.
The MultiTox-Fluor Multiplex Cytotoxicity Assay was performed in accordance with the manufacturer's protocol. After cells were incubated with tet and compound for 24 hours, 25 μL of 1× MultiTox reagent was added to each well using the Multidrop dispenser; the plates were placed on a plate shaker (600 rpm) for 2 minutes, then centrifuged briefly and placed back in the 37° C. incubator for 30 minutes. The cell viability (excitation: 400 nm, emission: 486 nm) and cytotoxicity (excitation: 485 nm, emission: 535 nm) were read using the EnVision plate reader. A ratio of dead (cytotoxicity) to live (viability) cells was reported. Data was exported and analyzed in Genedata. Data was normalized using percent of control, no tet (100% viability), and 50 ng/mL tet treated (0% viability), and fit using Smart Fit settings in Genedata.

Compound | pIC50
Cn1cc(CN2CCC3(CCc4ccc(Cl)cc43)CC2)cn1 [Compound 310, 6-chloro-1′-[(1-methylpyrazol-4-yl)methyl]spiro[indane-1,4′-piperidine]] | ≤ 6.30
Cc1cccc(CN2CCC3(CC2)OC(C(N)=O)c2ccc(Cl)cc23)n1 (centres unmarked) [Compound 268] | ≤ 6.30
Cn1cc(CN2CCC3(CC2)OCCc2ccccc23)cn1 [Compound 127] | ≤ 6.30
C[C@H]1C[C@@]2(CCN1Cc1cn(Cc3cn(C4COC4)nn3)nn1)OCCc1ccc(Cl)cc12 [Compound 181] | ≥ 7.30
CCc1nnc(Cn2cc(CN3CC[C@]4(C[C@@H]3C)OCCc3ccc(Cl)cc34)nn2)o1 [Compound 161] | ≥ 7.30
CNC(=O)C1OC2(CCN(Cc3cnn(-c4ccccc4)c3)CC2)c2cc(C)ccc21 (centres unmarked) [Compound 198] | ≥ 7.30
CCn1cc(CN2CC[C@]3(C[C@@H]2C)OCCc2ccc(Cl)cc23)nn1 [Compound 154] | 6.30 to 7.30
C[C@H]1C[C@@]2(CCN1Cc1ccncc1)OCCc1ccc(Cl)cc12 [Compound 118] | ≥ 7.30
Cc1cc(CN2CCC3(CC2)OC(C(N)=O)c2ccc(Cl)cc23)ccn1 (centres unmarked) [Compound 261] | 6.30 to 7.30
C[C@H]1C[C@@]2(CCN1Cc1cnn(CC(=O)N(C)C)c1)C(=O)Nc1ccc(Cl)cc12 [Compound 76] | ≥ 7.30
Cc1ccc2c(c1)C1(CCN(Cc3cn[nH]c3)[C@@H](C)C1)OCC2 (some centres unmarked) [Compound 97] | ≤ 6.30
Cc1ccc2c(c1)[C@]1(CCN(Cc3cnn(CC(C)(CO)CO)c3)[C@@H](C)C1)OCC2 [Compound 100] | ≥ 7.30
Cc1nc(CN2CCC3(CC2)OC(C(N)=O)c2ccc(Cl)cc23)c[nH]1 (centres unmarked) [Compound 222] | ≤ 6.30
Cc1ccc(CN2CCC3(CC2)OC(C(N)=O)c2ccc(Cl)cc23)nn1 (centres unmarked) [Compound 218] | ≤ 6.30
O=C1Nc2ccc(Cl)cc2C12CCN(Cc1cn[nH]c1)CC2 [Compound 11] | 6.30 to 7.30
CN1C(=O)C2(CCN(Cc3cnn(C)c3)CC2)c2cc(Cl)ccc21 [Compound 39] | 6.30 to 7.30
CN1C(=O)C2(CCN(Cc3cn[nH]c3)CC2)c2cc(Cl)ccc21 [Compound 38] | 6.30 to 7.30
NC(=O)C1OC2(CCN(Cc3c[nH]c4ncncc34)CC2)c2cc(Cl)ccc21 (centres unmarked) [Compound 229] | ≤ 6.30
Cc1ccc2c(c1)C1(CCN(Cc3cnn(C)c3)C(C)C1)OCC2 (centres unmarked) [Compound 93] | ≥ 7.30
C[C@H]1C[C@@]2(CCN1Cc1cnn(CCO)c1)OCCc1ccc(Cl)cc12 [Compound 103] | ≥ 7.30
C[C@H]1C[C@@]2(CCN1Cc1cnn(C)c1)OCC(O)c1ccc(Cl)cc12 (some centres unmarked) [Compound 131] | ≥ 7.30
N#Cc1cc(CN2CCC3(CC2)C(=O)Nc2ccc(Cl)cc23)ccn1 [Compound 20] | ≤ 6.30
CS(=O)(=O)CCn1cc(CN2CCC3(CC2)C(=O)N(C2COC2)c2ccc(Cl)cc23)cn1 [Compound 49] | 6.30 to 7.30
C[C@H]1C[C@@]2(CCN1Cc1cn(CC3(CO)CC3)nn1)OCCc1ccc(Cl)cc12 [Compound 148] | ≥ 7.30
C[C@H]1C[C@@]2(CCN1Cc1cn(CC3(C(N)=O)CCOCC3)nn1)OCCc1ccc(Cl)cc12 [Compound 184] | ≥ 7.30

Compound | pIC50
CS(=O)(=O)CCn1cc(CN2CCC3(CC2)OC(C(N)=O)c2ccc(C(F)(F)F)cc23)nn1 (centres unmarked) [Compound 207, 1′-[[1-(2-methylsulfonylethyl)triazol-4-yl]methyl]-5-(trifluoromethyl)spiro[1H-isobenzofuran-3,4′-piperidine]-1-carboxamide] | ≤ 6.30
C[C@H]1C[C@@]2(CCN1Cc1cn(Cc3nnc(N(C)C)[nH]3)nn1)OCCc1ccc(Cl)cc12 [Compound 185] | 6.30 to 7.30
NC(=O)c1ccc(CN2CCC3(CC2)OC(C(N)=O)c2ccc(Cl)cc23)cc1 (centres unmarked) [Compound 225] | ≥ 7.30
C[C@H]1C[C@@]2(CCN1Cc1cn(CCCO)nn1)OCCc1ccc(Cl)cc12 [Compound 147] | ≥ 7.30
C[C@H]1C[C@@]2(CCN1Cc1cnn(CCS(C)(=O)=O)c1)C(=O)N(C)c1ccc(Cl)cc12 [Compound 80, (2′S,3R)-5-chloro-1,2′-dimethyl-1′-[[1-(2-methylsulfonylethyl)pyrazol-4-yl]methyl]spiro[indoline-3,4′-piperidine]-2-one trifluoracetic acid] | ≥ 7.30
Cn1cc(CN2CCC3(CC2)C(=O)Nc2ccc(Cl)cc23)cn1 [Compound 13] | 6.30 to 7.30
Cc1ncc(CN2CCC3(CC2)OC(C(N)=O)c2ccc(Cl)cc23)o1 (centres unmarked) [Compound 260] | 6.30 to 7.30
Cc1nn(CCO)cc1Cn1cc(CN2CC[C@]3(C[C@@H]2C)OCCc2ccc(Cl)cc23)nn1 [Compound 170] | ≥ 7.30
Cn1cc(CN2CCC3(CC2)NCc2ccc(Cl)cc23)cn1 [Compound 311, 6-chloro-1′-[(1-methylpyrazol-4-yl)methyl]spiro[isoindoline-1,4′-piperidine]] | ≤ 6.30
Cc1ccc2c(c1)C1(CCN(Cc3cnn(-c4ccccc4)c3)CC1)OC2C(N)=O (centres unmarked) [Compound 196] | ≥ 7.30
CCc1ccc2c(c1)C1(CCN(Cc3cnn(-c4ccccc4)c3)CC1)OC2C(N)=O (centres unmarked) [Compound 205, 5-ethyl-1′-[(1-phenylpyrazol-4-yl)methyl]spiro[1H-isobenzofuran-3,4′-piperidine]-1-carboxamide] | ≥ 7.30
Cc1ccc2c(c1)[C@]1(CCN(Cc3cnn(C)c3)[C@@H](C)C1)OCC2 [Compound 91] | ≥ 7.30
CS(=O)(=O)CCn1cc(CN2CCC3(CC2)CC(N2CCNC2=O)c2ccc(Cl)cc23)cn1 (centres unmarked) [Compound 312, 1-[5-chloro-1′-[[1-(2-methylsulfonylethyl)pyrazol-4-yl]methyl]spiro[indane-3,4′-piperidine]-1-yl]imidazolidin-2-one] | ≤ 6.30
C[C@H]1C[C@@]2(CCN1Cc1cn(CC3(CC(N)=O)CC3)nn1)OCCc1ccc(Cl)cc12 [Compound 175] | ≥ 7.30
Cc1cc(CN2CCC3(CC2)OC(C(N)=O)c2ccc(Cl)cc23)on1 (centres unmarked) [Compound 258] | ≤ 6.30
Cc1ccc2c(c1)C1(CCN(Cc3ccccc3)C(C)C1)OCC2 (centres unmarked) [Compound 136] | 6.30 to 7.30
CN1C(=O)C2(CCN(Cc3cnn(CCS(C)(=O)=O)c3)CC2)c2cc(OC(F)F)ccc21 [Compound 85] | ≤ 6.30
NC(=O)C1OC2(CCN(Cc3cnc[nH]3)CC2)c2cc(Cl)ccc21 (centres unmarked) [Compound 234] | ≥ 7.30
NC(=O)C1OC2(CCN(Cc3cnn(-c4cccnc4)c3)CC2)c2cc(Cl)ccc21 (centres unmarked) [Compound 239] | ≥ 7.30
COCCn1cc(CN2CCC3(CC2)C(=O)Nc2ccc(C)cc23)cn1 [Compound 27] | ≤ 6.30
NC(=O)C1OC2(CCN(Cc3cnn(CC4(O)CCS(=O)(=O)CC4)c3)CC2)c2cc(Cl)ccc21 (centres unmarked) [Compound 282] | ≥ 7.30
CC(CO)(CO)Cn1cc(CN2CCC3(CC2)C(=O)Nc2ccc(Cl)cc23)nn1 [Compound 41, 5-chloro-1′-[[1-[3-hydroxy-2-(hydroxymethyl)-2-methyl-propyl]triazol-4-yl]methyl]spiro[indoline-3,4′-piperidine]-2-one] | 6.30 to 7.30
C[C@H]1C[C@@]2(CCN1Cc1cnn(C[C@@H](O)C(C)(C)O)c1)OCCc1ccc(Cl)cc12 [Compound 124] | ≥ 7.30
C[C@H]1CC2(CCN1Cc1cn(CCS(C)(=O)=O)nn1)OC(C)(C)c1ccc(Cl)cc12 (single isomer, unassigned) [Compound 291, (2′S)-5-chloro-1,1,2′-trimethyl-1′-[[1-(2-methylsulfonylethyl)triazol-4-yl]methyl]spiro[isobenzofuran-3,4′-piperidine]] | ≤ 6.30
C[C@H]1C[C@@]2(CCN1Cc1cnn(C)c1)OCCc1ccc(Cl)cc12 [Compound 111] | ≥ 7.30
